Each structure is given as a SMILES string.

Results on five compounds are retold here after patent US11746094B2, “Small molecule photosensitizers for photodynamic therapy” (The University Court of the University of Edinburgh, priority 2019, dated 2023).

Series [1] in a line: Singlet oxygen generation (DPBF absorption, 520 nm laser). The class given is physicochemical. The conditions noted are these: for Singlet oxygen quantum yield (%): DPBF 40 μM in EtOH, 520 nm laser 0.3 mW.
Series [2] concerns U87 glioblastoma cells. Kind of series: Phototoxicity assay in U87 glioblastoma cells, Annexin V-Pacific Blue staining (fluorescence microscopy, flow cytometry). It is filed as cell-based. As to the method:
Compound was administered at 100 μM and illuminated under 520 nm light. Annexin V-Pacific Blue was used as a stain for dead cells. Red fluorescence was used to confirm uptake of PS-SCOTfluor-13 into cells.
Phototoxicity assays of PS-SCOTfluor-13 and 2-NBDG in U87 glioblastoma cells were determined. Compounds administered at 100 μM and illuminated under 520 nm light. Annexin V-Pacific Blue was used as a stain for dead cells. Red fluorescence (for PS-SCOTfluor-13) and green fluorescence (for 2-NBDG) was used to confirm uptake of the compounds into cells.
(In general: A flow cytometer gives signals particle by particle.)

Series [3] has as its system U87-mCrimson glioblastoma cells. As to the kind of experiment: U87-mCrimson glioblastoma transplant in zebrafish embryos, 520 nm irradiation. The class given is in vivo. The conditions noted are these: compound injected, then 520 nm light. As to the method: Briefly, U87-mCrimson glioblastoma cells were injected into the yolk sac of zebrafish embryos. Cells were effectively transplanted as shown by fluorescence microscopy images. Zebrafish were then irradiated with 520 nm light alone or injected with PS-SCOTfluor-13 and then irradiated with 520 nm light.

[4] abbreviates: 100 μM, illuminated under 520 nm light.

On to `CCN(CC)c1cc(I)c([N+](=O)[O-])c2n[se]nc12` [PS-SCOTfluor-6, N,N-diethyl-6-iodo-7-nitrobenzo[c][1,2,5]selenadiazol-4-amine], for which the “Singlet oxygen quantum yield (%)” value in series [1] worked out at 5%.

In the case of `CCN(CC)c1ccc([N+](=O)[O-])c2n[se]nc12` [PS-SCOTfluor-5, N,N-diethyl-7-nitrobenzo[c][1,2,5]selenadiazol-4-amine], the “Singlet oxygen quantum yield (%)” value in series [1] was determined as 3%.

As for `NC(CNc1ccc([N+](=O)[O-])c2n[se]nc12)C(=O)O` (stereo not drawn) [PS-SCOTfluor-19, 2-amino-3-((7-nitrobenzo[c][1,2,5]selenadiazol-4-yl)amino)propanoic acid], the “Singlet oxygen quantum yield (%)” value in series [1] is 10%.

On to `O=[N+]([O-])c1ccc(N[C@H]2C(O)O[C@H](CO)[C@@H](O)[C@@H]2O)c2nonc12` (stereo partly drawn) [2-NBDG, reference compound], for which, in series [2] (100 μM), the “Uptake into U87 glioblastoma cells (fluorescence)” value is listed as “uptaken by U87 glioblastoma cells”. For the same compound, in series [2] (setting [4]), the “Cell death as detected by Annexin V staining (fluorescence microscopy)” value is listed as “does not kill the cells after illumination”. Besides, the “Singlet oxygen quantum yield (%)” value in series [1] is less than 1%.

Turning to `O=[N+]([O-])c1ccc(N[C@@H]2[C@@H](O)[C@H](O)[C@@H](CO)O[C@H]2O)c2nsnc12` [PS-SCOTfluor-13, (2R,3R,4R,5S,6R)-6-(hydroxymethyl)-3-((7-nitrobenzo[c][1,2,5]thiadiazol-4-yl)amino)tetrahydro-2H-pyran-2,4,5-triol], in series [2] (setting [4]), the “Cell death as detected by Annexin V staining (flow cytometry)” value was “kills U87 glioblastoma cells only after irradiation with light but not without light” and the “Cell death as detected by Annexin V staining (fluorescence microscopy)” value is “kills U87 glioblastoma cells only after irradiation with light”. Also, the “Effect of excess unlabelled glucose on uptake and cell death” value in series [2] (competition with excess unlabelled glucose, Annexin V staining) was “reduces the uptake of PS-SCOTfluor-13 and subsequently cell death”. For the same compound, in series [3], the “Glioblastoma transplant (fluorescence of mCrimson reporter)” value is reported as “reduction of the glioblastoma transplant”. Also, in series [1], the “Activity as photosensitizer (summary of Table 1)” value is listed as “high activity as photosensitizer” and the “Singlet oxygen quantum yield (%)” value is recorded as 24%.
